Reference: patent US10508104B2, “6-hydroxy-5-(phenyl/heteroarylsulfonyl)pyrimidin-4(1H)-one as APJ agonists” (Bristol-Myers Squibb Company, priority 2016, dated 2019)
pEC50: −log10 of the molar value.

Molecular target: human APJ receptor (Homo sapiens (Human), UniProt P35414)
Experiment: Intracellular cAMP accumulation assay (APJ hcAMP, HTRF)
Format: cell-based
Conditions: HEK293 cells stably expressing human APJ receptor; inhibition of forskolin-mediated cAMP production; read-out: Human APJ cAMP EC50 Potency range
Procedure, shortened: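 HEK293 cells stably expressing human APJ, 5,000 per well, incubated 30 min at rt with compound, […] and 2 μM forskolin. cAMP measured by HTRF against a cAMP standard curve as inhibition of forskolin-driven production. EC50 from variable-slope sigmoidal fit.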

Chain of human APJ receptor (P35414 whole entry): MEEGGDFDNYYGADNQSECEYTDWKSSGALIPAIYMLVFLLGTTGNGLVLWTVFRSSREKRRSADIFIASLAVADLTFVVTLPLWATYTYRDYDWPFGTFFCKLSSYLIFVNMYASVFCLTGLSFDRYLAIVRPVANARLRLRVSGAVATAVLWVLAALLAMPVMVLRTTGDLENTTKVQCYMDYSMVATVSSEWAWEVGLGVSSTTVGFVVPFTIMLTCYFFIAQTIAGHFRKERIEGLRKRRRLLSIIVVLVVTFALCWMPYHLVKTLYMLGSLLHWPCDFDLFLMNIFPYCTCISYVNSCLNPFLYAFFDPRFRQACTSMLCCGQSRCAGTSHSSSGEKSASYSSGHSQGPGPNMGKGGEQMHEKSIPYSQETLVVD

pEC50 | SMILES
8.00 to 11.00 | CC[C@@H](c1cccc(C#N)c1)n1c(CC2CC2)nc(=O)c(S(=O)(=O)c2ccc(-c3ccncc3C#N)cc2)c1O [Example 474, 4-[4-({1-[(1S)-1-(3-cyanophenyl)propyl]-2-(cyclopropylmethyl)-6-hydroxy-4-oxo-1,4-dihydropyrimidin-5-yl}sulfonyl)phenyl] pyridine-3-carbonitrile]
8.00 to 11.00 | CC[C@@H](c1cc(F)cc(C#N)c1)n1c(CC2CC2)nc(=O)c(S(=O)(=O)c2ccc(-c3ccncc3C)cc2)c1O [Example 475, 3-[(1S)-1-[2-(cyclopropylmethyl)-6-hydroxy-5-[4-(3-methylpyridin-4-yl)benzenesulfonyl]-4-oxo-1,4-dihydropyrimidin-1-yl]propyl]-5-fluorobenzonitrile]
8.00 to 11.00 | CCCCc1nc(=O)c(S(=O)(=O)c2ccc(-c3ccnc(F)c3C)cc2)c(O)n1[C@H](c1cccc(C#N)c1)C1CC1 [Example 476, 3-[(S)-{2-butyl-5-[4-(2-fluoro-3-methylpyridin-4-yl)benzenesulfonyl]-6-hydroxy-4-oxo-1,4-dihydropyrimidin-1-yl}(cyclopropyl)methyl] benzonitrile]
8.00 to 11.00 | CCCCc1nc(=O)c(S(=O)(=O)c2ccc(-c3ccc(F)cc3C(N)=O)cc2)c(O)n1[C@H](c1cccc(C#N)c1)C1CC1 [Example 477, 4′-({2-butyl-1-[(S)-(3-cyanophenyl)(cyclopropyl)methyl]-6-hydroxy-4-oxo-1,4-dihydropyrimidin-5-yl}sulfonyl)-4-fluoro-[1,1′-biphenyl]-2-carboxamide]
8.00 to 11.00 | C/C=C(/c1cccc(C#N)c1)n1c(CCCC)nc(=O)c(S(=O)(=O)c2ccc(-c3ccncc3C)cc2)c1O [Example 478, 3-[(1Z)-1-{2-butyl-6-hydroxy-5-[4-(3-methylpyridin-4-yl)benzenesulfonyl]-4-oxo-1,4-dihydropyrimidin-1-yl}prop-1-en-1-yl]benzonitrile]
8.00 to 11.00 | CCCCc1nc(=O)c(S(=O)(=O)c2ccc(-c3ccc(F)nc3C)cc2)c(O)n1[C@H](c1cccc(C#N)c1)C1CC1 [Example 479, 3-[(S)-{2-butyl-5-[4-(6-fluoro-2-raethylpyridin-3-yl)benzenesulfonyl]-6-hydroxy-4-oxo-1,4-dihydropyrimidin-1-yl}(cyclopropyl)methyl] benzonitrile]
8.00 to 11.00 | CCCCc1nc(=O)c(S(=O)(=O)c2ccc(-c3cccn(C)c3=O)cc2)c(O)n1[C@H](c1cccc(C#N)c1)C1CC1 [Example 480, 3-[(S)-{2-butyl-6-hydroxy-5-[4-(1-methyl-2-oxo-1,2-dihydropyridin-3-yl)benzenesulfonyl]-4-oxo-1,4-dihydropyrimidin-1-yl}(cyclopropyl)methyl] benzonitrile]
8.00 to 11.00 | CCCCc1nc(=O)c(S(=O)(=O)c2ccc(-c3ccccc3C(=O)OC)cn2)c(O)n1[C@@H](CC)c1cccc(C#N)c1 [Example 481, methyl 2-[6-({2-butyl-1-[(1S)-1-(3-cyanophenyl)propyl]-6-hydroxy-4-oxo-1,4-dihydropyrimidin-5-yl}sulfonyl)pyridin-3-yl]benzoate]
8.00 to 11.00 | CCCCc1nc(=O)c(S(=O)(=O)c2ccc(-c3ccccc3C)cn2)c(O)n1[C@@H](CC)c1cccc(C#N)c1 [Example 482, 3-[(1S)-1-(2-butyl-6-hydroxy-5-{[5-(2-methy!phenyl)pyridin-2-yl]sulfonyl}-4-oxo-1,4-dihydropyrimidin-1-yl)propyl]benzonitrile]
8.00 to 11.00 | C/C=C(/c1cccc(C#N)c1)n1c(CCCC)nc(=O)c(S(=O)(=O)c2ccc(-c3ccnc(F)c3C)cc2)c1O [Example 483, 3-[(1Z)-1-{2-butyl-5-[4-(2-fluoro-3-methylpyridin-4-yl)benzenesulfonyl]-6-hydroxy-4-oxo-1,4-dihydropyrimidin-1-yl}prop-1-en-1-yl]benzonitrile]
8.00 to 11.00 | CCCCc1nc(=O)c(S(=O)(=O)c2ccc(-c3cccnc3C)cc2)c(O)n1[C@H](c1cccc(C#N)c1)C1CC1 [Example 484, 3-[(S)-{2-butyl-6-hydroxy-5-[4-(2-methyipyridin-3-yl)benzenesulfonyl]-4-oxo-1,4-dihydropyrimidin-1-yl}(cyclopropyl)methyl] benzonitrile]
8.00 to 11.00 | CCCCc1nc(=O)c(S(=O)(=O)c2ccc(-c3cccn(C)c3=O)cn2)c(O)n1[C@@H](CC)c1cccc(C#N)c1 [Example 485, 3-[(1S)-1-[2-butyl-6-hydroxy-5-({1′-methyl-2′-oxo-1′,2′-dihydro-[3,3′-bipyridine]-6-yl}sulfonyl)-4-oxo-1,4-dihydropyrimidin-1-yl]propyl]benzonitrile]
8.00 to 11.00 | CC[C@@H](c1cccc(C#N)c1)n1c(CC2CC2)nc(=O)c(S(=O)(=O)c2ccc(-c3cccnc3C(N)=O)cc2)c1O [Example 486, 3-[4-({1-[(1S)-1-(3-cyanophenyl)propyl]-2-(cyclopropylmethyl)-6-hydroxy-4-oxo-1,4-dihydropyrimidin-5-yl}sulfonyl)phenyl] pyridine-2-carboxamide]
8.00 to 11.00 | CCCCc1nc(=O)c(S(=O)(=O)c2ccc(-c3ccncc3C)cc2)c(O)n1[C@H](c1cccc(C#N)c1)C1CC1 [Example 487, 3-[(S)-{2-butyl-6-hydroxy-5-[4-(3-methylpyridin-4-yl)benzenesulfonyl]-4-oxo-1,4-dihydropyrimidin-1-yl}(cyclopropyl)methyl] benzonitrile]
8.00 to 11.00 | CC[C@@H](c1cc(F)cc(C#N)c1)n1c(CC2CC2)nc(=O)c(S(=O)(=O)c2ccc(-c3ccnc(F)c3C)cc2)c1O [Example 488, 3-[(1S)-1-[2-(cyclopropylmethyl)-5-[4-(2-fluoro-3-methylpyridin-4-yl)benzenesulfonyl]-6-hydroxy-4-oxo-1,4-dihydropyrimidin-1-yl]propyl]-5-fluorobenzonitrile]
8.00 to 11.00 | CCCCc1nc(=O)c(S(=O)(=O)c2ccc(-c3ccccc3C(=O)N3CCOCC3)cc2)c(O)n1[C@@H](CC)c1cccc(C#N)c1 [Example 489, 3-[(1S)-1-(2-butyl-6-hydroxy-5-{[2′-(morpholine-4-carbonyl)-[1,1′-biphenyl]-4-yl)sulfonyl}-4-oxo-1,4-dihydropyrimidin-1-yl)propyl]benzonitrile]
8.00 to 11.00 | Cn1cccc(-c2ccc(S(=O)(=O)c3c(O)n([C@H](c4cccc(C#N)c4)C4CC4)c(CC4CC4)nc3=O)cc2)c1=O [Example 490, 3-[(S)-cyclopropyl[2-(cyclopropylmethyl)-6-hydroxy-5-[4-(1-methyl-2-oxo-1,2-dihydropyridin-3-yl)benzenesulfonyl]-4-oxo-1,4-dihydropyrimidin-1-yl]methyl]benzonitrile]
8.00 to 11.00 | CCCCc1nc(=O)c(S(=O)(=O)c2ccc(-c3ccccc3C)cc2)c(O)n1[C@@H](CC)c1cccc(C#N)c1 [Example 491, 3-[(1S)-1-[2-butyl-6-hydroxy-5-({2′-methyl-[1,1′-biphenyl]-4-yl}sulfonyl)-4-oxo-1,4-dihydropyrimidin-1-yl]propyl]benzonitrile]
8.00 to 11.00 | CCCCc1nc(=O)c(S(=O)(=O)c2ccc(-c3cccc(C#N)c3C)cc2)c(O)n1[C@@H](CC)c1cccc(C#N)c1 [Example 492, 4′-({2-butyl-1-[(1S)-1-(3-cyanophenyl)propyl]-6-hydroxy-4-oxo-1,4-dihydropyrimidin-5-yl}sulfonyl)-2-methyl-[1,1′-biphenyl]-3-carbonitrile]
8.00 to 11.00 | CCCCc1nc(=O)c(S(=O)(=O)c2ccc(-c3cc(C#N)ccc3C)cc2)c(O)n1[C@@H](CC)c1cccc(C#N)c1 [Example 493, 4′-({2-butyl-1-[(1S)-1-(3-cyanophenyl)propyl]-6-hydroxy-4-oxo-1,4-dihydropyrimidin-5-yl}sulfonyl)-6-methyl-[1,1′-biphenyl]-3-carbonitrile]
8.00 to 11.00 | CCCCc1nc(=O)c(S(=O)(=O)c2ccc(-c3ccc(F)cc3C(N)=O)cc2)c(O)n1[C@@H](CC)c1cccc(C#N)c1 [Example 494, 4′-({2-butyl-1-[(1S)-1-(3-cyanophenyl)propyl]-6-hydroxy-4-oxo-1,4-dihydropyrimidin-5-yl}sulfonyl)-4-fluoro-[1,1′-biphenyl]-2-carboxamide]
8.00 to 11.00 | CCCCc1nc(=O)c(S(=O)(=O)c2ccc(-c3c[nH]nc3C)cc2)c(O)n1[C@@H](CC)c1cccc(C#N)c1 [Example 495, 3-[(1S)-1-{2-butyl-6-hydroxy-5-[4-(3-methyl-1H-pyrazol-4-yl)benzenesulfonyl]-4-oxo-1,4-dihydropyrimidin-1-yl}propyl]benzonitrile]
8.00 to 11.00 | Cc1cnccc1-c1ccc(S(=O)(=O)c2c(O)n([C@H](c3cccc(C#N)c3)C3CC3)c(CC3CC3)nc2=O)cc1 [Example 496, 3-[(S)-cyclopropyl[2-(cyclopropylmethyl)-6-hydroxy-5-[4-(3-methylpyridin-4-yl)benzenesulfonyl]-4-oxo-1,4-dihydropyrimidin-1-yl]methyl]benzonitrile]
8.00 to 11.00 | Cc1ncccc1-c1ccc(S(=O)(=O)c2c(O)n([C@H](c3cccc(C#N)c3)C3CC3)c(CC3CC3)nc2=O)cc1 [Example 497, 3-[(S)-cyclopropyl[2-(cyclopropylmethyl)-6-hydroxy-5-[4-(2-methylpyridin-3-yl)benzenesulfonyl]-4-oxo-1,4-dihydropyrimidin-1-yl]methyl]benzonitrile]
8.00 to 11.00 | Cc1c(-c2ccc(S(=O)(=O)c3c(O)n([C@H](c4cccc(C#N)c4)C4CC4)c(CC4CC4)nc3=O)cc2)ccnc1F [Example 498, 3-[(S)-cyclopropyl[2-(cyclopropylmethyl)-5-[4-(2-fluoro-3-methylpyridin-4-yl)benzenesulfonyl]-6-hydroxy-4-oxo-1,4-dihydropyrimidin-1-yl]methyl]benzonitrile]
8.00 to 11.00 | Cc1nc(F)ccc1-c1ccc(S(=O)(=O)c2c(O)n([C@H](c3cccc(C#N)c3)C3CC3)c(CC3CC3)nc2=O)cc1 [Example 499, 3-[(S)-cyclopropyl[2-(cycIopropylmethyl)-5-[4-(6-fluoro-2-methylpyridin-3-yl)benzenesulfonyl]-6-hydroxy-4-oxo-1,4-dihydropyrimidin-1-yl]methyl]benzonitrile]
